The test relates to P388 leukemia ip, CD2F1 mice, survival T/C. Nature of the test: NCI In Vivo Anticancer Drug Screen. Data for tumor model P388 Leukemia (intraperitoneal) in CD2F1 (CDF1) mice. To be noted: endpoint: median survival time, higher = longer survival. The method, boiled down:
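Mice carrying the transplanted tumor received test compound or vehicle. Survival was recorded in each group, and the value is the treated-group measurement divided by that of the vehicle-treated control group.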

[1] abbreviates: dose: 12.5 mg/kg/injection, schedule: Q04DX003 (ip), vehicle: saline with Tween-80.
The mark [2] stands for this setting: dose: 25.0 mg/kg/injection, schedule: Q04DX003 (ip), vehicle: saline with Tween-80.
[3] abbreviates: dose: 50.0 mg/kg/injection, schedule: Q04DX003 (ip), vehicle: saline with Tween-80.
Setting [4] is: dose: 6.25 mg/kg/injection, schedule: Q01DX009 (ip), vehicle: saline with Tween-80.
[5] abbreviates: dose: 12.5 mg/kg/injection, schedule: Q01DX009 (ip), vehicle: saline with Tween-80.
[6] abbreviates: dose: 100.0 mg/kg/injection, schedule: Q04DX002 (ip), vehicle: saline with Tween-80.
The mark [7] stands for this setting: dose: 200.0 mg/kg/injection, schedule: Q04DX002 (ip), vehicle: saline with Tween-80.
Setting [8] is: dose: 25.0 mg/kg/injection, schedule: Q01DX009 (ip), vehicle: saline with Tween-80.
The mark [9] stands for this setting: dose: 50.0 mg/kg/injection, schedule: Q01DX009 (ip), vehicle: saline with Tween-80.
[10] abbreviates: dose: 100.0 mg/kg/injection, schedule: Q04DX003 (ip), vehicle: saline with Tween-80.
Where [11] appears, read: dose: 200.0 mg/kg/injection, schedule: Q04DX003 (ip), vehicle: saline with Tween-80.
[12] abbreviates: dose: 50.0 mg/kg/injection, schedule: Q01DX005 (ip), vehicle: Klucel (hydroxypropylcellulose) (HPC).
The mark [13] stands for this setting: dose: 100.0 mg/kg/injection, schedule: Q01DX005 (ip), vehicle: Klucel (hydroxypropylcellulose) (HPC).
Setting [14] is: dose: 100.0 mg/kg/injection, schedule: Q01DX009 (ip), vehicle: saline.
[15] abbreviates: dose: 60.0 mg/kg/injection, schedule: Q01DX005 (ip), vehicle: saline with Tween-80.
Where [16] appears, read: dose: 120.0 mg/kg/injection, schedule: Q01DX005 (ip), vehicle: saline with Tween-80.
Where [17] appears, read: dose: 240.0 mg/kg/injection, schedule: Q01DX005 (ip), vehicle: saline with Tween-80.
The mark [18] stands for this setting: dose: 100.0 mg/kg/injection, schedule: Q01DX009 (ip), vehicle: saline with Tween-80.
The mark [19] stands for this setting: dose: 200.0 mg/kg/injection, schedule: Q01DX009 (ip), vehicle: saline with Tween-80.
Where [20] appears, read: dose: 50.0 mg/kg/injection, schedule: Q01DX009 (ip), vehicle: Klucel (hydroxypropylcellulose) (HPC).
Where [21] appears, read: dose: 100.0 mg/kg/injection, schedule: Q01DX009 (ip), vehicle: Klucel (hydroxypropylcellulose) (HPC).

The structures appear in SMILES notation. Values joined by “and” are separate entries in the source; they are usually repeats but may differ in a detail not shown here. Equal entries are not always repeated. Toxic doses and inconclusive results are not listed.

Turning to `CCCCCCCCC1(O)OC(=O)C(C)=C1C` (centres undefined), the T/C under setting [1] is 100 % of control, the T/C under setting [2] was 100 % of control and the T/C under setting [3] was 103 % of control.

For the molecule `c1ccc(-c2nc3ccccc3nc2-c2ccc(-c3nc4ccccc4nc3-c3ccccc3)cc2)cc1`, the T/C reads like this: under setting [4], 112 % of control; under setting [5], 90 % of control.

With `CC1CC(C)S(=O)CS1` (centres undefined), the T/C by setting is: under setting [6], 98 % of control; under setting [7], 100 % of control.

For `CCCCCCCCCCCCCCCC(=O)N(CCCN)CCCN(CCCN)C(=O)CCCCCCCCCCCCCCC`, the T/C under setting [5] is 86 % of control, the T/C under setting [8] is 109 % of control and the T/C under setting [9] is 100 % of control.

Take `CCCC(=O)Nc1ccc([N+](=O)[O-])cc1OC`: the T/C under setting [10] is 88 % of control; the T/C under setting [11] is 100 % of control; the T/C (dose: 400.0 mg/kg/injection, schedule: Q04DX003 (ip), vehicle: saline with Tween-80) was 100 % of control.

Consider `BrCCCOc1ccccc1Br`, for which the T/C under setting [12] is 101 % of control; the T/C under setting [13] was 97 % of control; the T/C (dose: 200.0 mg/kg/injection, schedule: Q01DX005 (ip), vehicle: Klucel (hydroxypropylcellulose) (HPC)) was 105 % of control.

On to `CC1(C)OC2C(CCP(=O)(O)O)OC(c3nc(C(N)=O)cs3)C2O1` (centres undefined), for which the T/C (dose: 100.0 mg/kg/injection, schedule: Q04DX003 (ip), vehicle: suspension in saline) was 99 % of control; the T/C (dose: 200.0 mg/kg/injection, schedule: Q04DX003 (ip), vehicle: suspension in saline) is 100 % of control; the T/C (dose: 400.0 mg/kg/injection, schedule: Q04DX003 (ip), vehicle: suspension in saline) was 119 % of control.

Turning to `COc1cccc(O)c1O`, the T/C was 101 % of control under setting [14]; 100 % of control (dose: 200.0 mg/kg/injection, schedule: Q01DX009 (ip), vehicle: saline); 111 % of control (dose: 400.0 mg/kg/injection, schedule: Q01DX009 (ip), vehicle: saline).

For `COc1ccc(N=NNc2ccc(OC)cc2)cc1`, the T/C is 104 % of control under setting [4]; 95 % of control (dose: 6.25 mg/kg/injection, schedule: Q04DX003 (ip), vehicle: saline with Tween-80); 104 % of control under setting [5]; 108 % of control under setting [1]; 116 % of control under setting [2].

For `C=C(CN(C)C)C(=O)c1ccc(OC)cc1OC`, the T/C runs as follows: (dose: 1.9 mg/kg/injection, schedule: Q04DX002 (ip), vehicle: saline) 95 % of control; (dose: 3.8 mg/kg/injection, schedule: Q04DX002 (ip), vehicle: saline) 106 % of control; (dose: 7.5 mg/kg/injection, schedule: Q04DX002 (ip), vehicle: saline) 102 % of control and 98 % of control.

For the molecule `Nc1ncnc2c1ncn2CCOCC(O)CO` (centres undefined), the T/C was 100 % of control under setting [15], 95 % of control under setting [16] and 93 % of control under setting [17].

Regarding `N#Cc1cnn(-c2cccc(Cl)c2)c1-n1cccc1`, the T/C runs as follows: under setting [9], 100 % of control; under setting [18], 100 % of control; under setting [19], 93 % of control.

Regarding `COc1cc2c(cc1OC)[C@@]1(C[C@H]1CO)OCC2`, the T/C is, setting by setting: (dose: 100.0 mg/kg/injection, schedule: Q04DX002 (ip), vehicle: Klucel (hydroxypropylcellulose) (HPC)) 100 % of control; (dose: 200.0 mg/kg/injection, schedule: Q04DX002 (ip), vehicle: Klucel (hydroxypropylcellulose) (HPC)) 98 % of control; (dose: 400.0 mg/kg/injection, schedule: Q04DX002 (ip), vehicle: Klucel (hydroxypropylcellulose) (HPC)) 95 % of control.

Consider `O=c1c2cncnc2sc2nccn12`, for which the T/C runs as follows: under setting [15], 99 % of control; under setting [16], 98 % of control; under setting [17], 95 % of control.

For the molecule `CCN(CC)C(=O)C(C)C1=NS(=O)(=O)c2ccccc21` (centres undefined), the T/C is 101 % of control (dose: 75.0 mg/kg/injection, schedule: Q04DX003 (ip), vehicle: Klucel (hydroxypropylcellulose) (HPC)); 99 % of control (dose: 150.0 mg/kg/injection, schedule: Q04DX003 (ip), vehicle: Klucel (hydroxypropylcellulose) (HPC)); 100 % of control (dose: 300.0 mg/kg/injection, schedule: Q04DX003 (ip), vehicle: Klucel (hydroxypropylcellulose) (HPC)).

Take `O=C1c2ccccc2C(=O)N1C/C=C\c1ccccc1`: the T/C (dose: 100.0 mg/kg/injection, schedule: Q01DX001 (ip), vehicle: saline) is 102 % of control; the T/C (dose: 200.0 mg/kg/injection, schedule: Q01DX001 (ip), vehicle: saline) was 102 % of control; the T/C (dose: 400.0 mg/kg/injection, schedule: Q01DX001 (ip), vehicle: saline) is 107 % of control.

Take `COc1ccc(NC(CCN2CCN(CCC(=NC(C)(C)C)Nc3ccc(OC)cc3)CC2)=NC(C)(C)C)cc1`: the T/C reads like this: under setting [8], 97 % of control; (dose: 25.0 mg/kg/injection, schedule: Q01DX009 (ip), vehicle: saline) 110 % of control; under setting [12], 98 % of control; under setting [20], 110 % of control; under setting [9], 97 % of control; (dose: 50.0 mg/kg/injection, schedule: Q01DX009 (ip), vehicle: saline) 109 % of control. The T/C is, setting by setting: under setting [13], 103 % of control; under setting [21], 110 % of control; under setting [18], 107 % of control; under setting [14], 97 % of control; under setting [19], 116 % of control.

On to `CCCCCCCCCC[N+](C)([O-])CCCCCC[N+](C)([O-])CCCCCCCCCC` (centres undefined), for which the T/C is 102 % of control under setting [3] and 99 % of control under setting [10].

Consider `O=C1c2ccccc2S(=O)(=O)CC12OC2c1ccc(Cl)cc1` (centres undefined), for which the T/C is, setting by setting: under setting [6], 88 % of control; under setting [7], 88 % of control; (dose: 400.0 mg/kg/injection, schedule: Q04DX002 (ip), vehicle: saline with Tween-80) 94 % of control.

As to `COc1cc(C(=O)N/N=C/c2cccc([N+](=O)[O-])c2)cc(OC)c1OC`, the T/C is, setting by setting: under setting [9], 102 % of control and 115 % of control; under setting [18], 123 % of control; under setting [19], 163 % of control; (dose: 400.0 mg/kg/injection, schedule: Q01DX009 (ip), vehicle: saline with Tween-80) 168 % of control.

Take `CC(C)CC(NP(=S)(c1ccccc1)c1ccccc1)C(=O)O` (centres undefined): the T/C under setting [20] was 111 % of control; the T/C under setting [21] is 105 % of control; the T/C (dose: 200.0 mg/kg/injection, schedule: Q01DX009 (ip), vehicle: Klucel (hydroxypropylcellulose) (HPC)) is 108 % of control.

On to `CC(=O)C(C(=O)Nc1cccc2ccccc12)C(C)=NCCN=C(C)C(C(C)=O)C(=O)Nc1cccc2ccccc12.[Cu]` (centres undefined), for which the T/C by setting is: (dose: 50.0 mg/kg/injection, schedule: Q01DX005 (ip), vehicle: saline with Tween-80) 94 % of control; (dose: 100.0 mg/kg/injection, schedule: Q01DX005 (ip), vehicle: saline with Tween-80) 96 % of control; (dose: 200.0 mg/kg/injection, schedule: Q01DX005 (ip), vehicle: saline with Tween-80) 96 % of control.

In the case of `Cc1cc(NCCCNCCCNc2cc(C)nc3cc(N)ccc23)c2ccc(N)cc2n1`, the T/C (dose: 12.5 mg/kg/injection, schedule: Q01DX009 (ip), vehicle: other) is 160 % of control.

As for `NC(=O)NN=C(C1CC1)C1CC1`, the T/C (dose: 3.12 mg/kg/injection, schedule: Q01DX005 (ip), vehicle: Klucel (hydroxypropylcellulose) (HPC)) was 115 % of control; the T/C (dose: 6.25 mg/kg/injection, schedule: Q01DX005 (ip), vehicle: Klucel (hydroxypropylcellulose) (HPC)) is 98 % of control; the T/C (dose: 12.5 mg/kg/injection, schedule: Q01DX005 (ip), vehicle: Klucel (hydroxypropylcellulose) (HPC)) is 104 % of control; the T/C under setting [12] is 99 % of control.

As to `c1ccc2cc(N=NNc3ccc4ccccc4c3)ccc2c1`, the T/C under setting [9] is 122 % of control; the T/C under setting [3] was 90 % of control; the T/C under setting [18] is 95 % of control; the T/C under setting [10] was 100 % of control; the T/C under setting [11] is 109 % of control.

The values are drawn from PubChem BioAssay AID330 (DTP/NCI, 2004).
